{"source": "patent US11672792B2", "about": "“Topical formulations comprising montelukast and combinations with mussel adhesive proteins” (ENLITISA (SHANGHAI) PHARMACEUTICAL CO., LTD, priority 2017, dated 2023)", "key": {"[1]": {"tested_on": "full thickness skin wounds", "assay": "Acute Wound Model (Example 6)", "type": "in vivo, C57BL/6 mice", "conditions": "for Hyp content (μg/mg tissue weight), single animals / Hyp content, Mean (n = 4): wound tissue", "experimental": "6-8 weeks old male C57BL/6 mice were supplied by Changzhou Cvens Experimental Animal Co. Ltd. Prior to any experiments being conducted, mice were housed under standardized conditions (at a constant temperature or 22±2° C., with alternating 12 hour periods of light and darkness), and were fed on a standard mouse diet with water, for about a week. […] The hair on the back was shaved by a baby hair shaver and depilated with cream. […] EMS skin biopsy punch (Electron Microscopy Sciences, P.O. […] Full thickness skin was removed and the depth reached the fascia. The wounds left open without suture. […] The model group was given same amount of normal saline. Recombinant Human Epidermal Growth Factor (rhEGF, Shanghai Haohai Biological Technology Co. Ltd, Shanghai, China) was purchased and prepared according to the manufacturer's instructions. Lyophilized rhEGF powder (100000 IU/vial) was dissolved in 20 mL of normal saline to make a solution with a 5000 IU/mL concentration. […] MedChemExpress, MCE China, Shanghai, China) was obtained in a powder form and was dissolved in ultrapure water to obtain solutions with concentrations as described in Table 22 (L, M and H indicate low, medium and high montelukast doses, respectively) Wounds were wrapped up with transparent dresser after drug administration. Photographs were taken for each wound every other day from Day 0. Photos were scanned into a computer, and wound areas calculated using ImageJ image analysis software (National Institutes of Health, […]). The unhealed wound area was expressed as a percentage of the original wound area: At/A0×100%, where A0 and At refer to the initial area at Day 0 and the wound area at the date of measurement (time t), respectively. […] Half of the tissue was preserved in 10% neutral buffered formalin (Nanchang […] Experimental Equipment Co., Ltd., Nanchang, […] Provence, China), and analyzed by histological embedding in paraffin wax, sectioning and staining. HE and Masson stained paraffin sections were analyzed under an optical microscope. Skin regeneration, fibroblastic proliferation, collagen regeneration scores and inflammation scores were estimated. The rest of the samples were stored at -80° C. for further analysis. […] The supernatant was collected, and the extracted protein was used for ELISA analysis using standard ELISA test kits and an ELISA reader (SH-1000 Hitachi, Japan). […] (Beijing, China)."}, "[2]": {"tested_on": "full thickness skin wounds in diabetic mice", "assay": "Diabetic Wound Model (Example 7)", "type": "in vivo, db/db mice (C57BL/KsJ-db/db)", "conditions": "Day 6, Mon 100 μg/each", "experimental": "A similar experiment with essentially the same protocol to that described in Example 6 above was carried out on 8 to 12 week-old male db/db mice (C57BL/KsJ-db/db, with a body weight of 35-45 g/mouse; supplied by Changzhou Cvens Experimental Animal Co. Ltd.).\nAn EMS skin biopsy punch with a […] diameter was used to make wounds.\nDifferent drugs were administrated topically at 20 μL/wound, once daily from Day 0 to Day 18. The model group was given same amount of normal saline.\nSamples were taken on Day 6, Day 12 and Day 18 post-wound inflictions.\nHistological specimens were analyzed and skin regeneration, fibroblast proliferation, collagen regeneration scores (Masson score) and inflammation scores were estimated as follows.\nThe HE and Masson stained slices were observed under an optical microscope and were scored (1, 2 or 3 points) according to the following criteria. […]\nFibroblast proliferation was scored as the following criteria:\nInflammation was scored as the following criteria:\nCollagen deposition score criterion for the Masson stained sample were as follows. […] No clear blue staining was given 0 points; blue fiber appearing in a scattered pattern was scored as 1 points; if more blue fiber appeared, this was scored as 2 points, and a diffuse blue colour was given 3 points."}}, "note": "Values joined by “and” are separate entries in the source; they are usually repeats but may differ in a detail not shown here. Equal entries are not always repeated."}
{"smiles": "CC(C)(O)c1ccccc1CC[C@@H](SCC1(CC(=O)O)CC1)c1cccc(/C=C/c2ccc3ccc(Cl)cc3n2)c1", "note": "[Mon, Montelukast sodium]", "values": [{"measurement": "remaining wound area versus the initial wound", "setting": "[1]; Day 2, Mon H 200 μg/wound", "result": "76.11 ± 6.40", "unit": "%"}, {"measurement": "remaining wound area versus the initial wound", "setting": "[1]; Day 2, Mon L 50 μg/wound once daily topically", "result": "78.41 ± 9.51", "unit": "%"}, {"measurement": "remaining wound area versus the initial wound", "setting": "[1]; Day 2, Mon M 100 μg/wound", "result": "79.97 ± 11.79", "unit": "%"}, {"measurement": "improvement rate (wound healing)", "setting": "[1]; Day 4, Mon H 200 μg/wound", "result": "about 39%"}, {"measurement": "remaining wound area versus the initial wound", "setting": "[1]; Day 4, Mon H 200 μg/wound", "result": "48.60 ± 6.49", "unit": "%"}, {"measurement": "remaining wound area versus the initial wound", "setting": "[1]; Day 4, Mon L 50 μg/wound", "result": "57.59 ± 11.54", "unit": "%"}, {"measurement": "remaining wound area versus the initial wound", "setting": "[1]; Day 4, Mon M 100 μg/wound", "result": "55.09 ± 8.83", "unit": "%"}, {"measurement": "remaining wound area versus the initial wound", "setting": "[1]; Day 6, Mon H 200 μg/wound", "result": "29.13 ± 6.16", "unit": "%"}, {"measurement": "remaining wound area versus the initial wound", "setting": "[1]; Day 6, Mon L 50 μg/wound", "result": "27.53 ± 3.76", "unit": "%"}, {"measurement": "remaining wound area versus the initial wound", "setting": "[1]; Day 6, Mon M 100 μg/wound", "result": "28.51 ± 1.03", "unit": "%"}, {"measurement": "remaining wound area versus the initial wound", "setting": "[1]; Day 8, Mon H 200 μg/wound", "result": "14.59 ± 3.04", "unit": "%"}, {"measurement": "remaining wound area versus the initial wound", "setting": "[1]; Day 8, Mon L 50 μg/wound", "result": "14.08 ± 2.85", "unit": "%"}, {"measurement": "remaining wound area versus the initial wound", "setting": "[1]; Day 8, Mon M 100 μg/wound", "result": "13.87 ± 3.51", "unit": "%"}, {"measurement": "remaining wound area versus the initial wound", "setting": "[1]; Day 12, Mon H 200 μg/wound", "result": "2.48 ± 3.43", "unit": "%"}, {"measurement": "remaining wound area versus the initial wound", "setting": "[1]; Day 12, Mon L 50 μg/wound", "result": "1.15 ± 2.29", "unit": "%"}, {"measurement": "remaining wound area versus the initial wound", "setting": "[1]; Day 12, Mon M 100 μg/wound", "result": "2.15 ± 3.73", "unit": "%"}, {"measurement": "Hyp content (μg/mg tissue weight), single animals", "setting": "[1]; Mon H 200 μg/wound", "result": "4.62 μg/mg tissue weight and 5.83 μg/mg tissue weight and 3.99 μg/mg tissue weight and 4.64 μg/mg tissue weight"}, {"measurement": "Hyp content, Mean (n = 4)", "setting": "[1]; Mon H 200 μg/wound", "result": 4.77, "unit": "μg/mg tissue weight"}, {"measurement": "Hyp content (μg/mg tissue weight), single animals", "setting": "[1]; Mon L 50 μg/wound", "result": "4.65 μg/mg tissue weight and 4.41 μg/mg tissue weight and 6.71 μg/mg tissue weight and 6.05 μg/mg tissue weight"}, {"measurement": "Hyp content, Mean (n = 4)", "setting": "[1]; Mon L 50 μg/wound", "result": 5.46, "unit": "μg/mg tissue weight"}, {"measurement": "Hyp content (μg/mg tissue weight), single animals", "setting": "[1]; Mon M 100 μg/wound", "result": "4.94 μg/mg tissue weight and 4.18 μg/mg tissue weight and 6.80 μg/mg tissue weight and 4.98 μg/mg tissue weight"}, {"measurement": "Hyp content, Mean (n = 4)", "setting": "[1]; Mon M 100 μg/wound", "result": 5.23, "unit": "μg/mg tissue weight"}, {"measurement": "increase of VEGF production in the wounded tissue in comparison with model group", "setting": "[2]", "result": "about 74%"}, {"measurement": "VEGF content, Mean", "setting": "[2]; wound tissue, rhEGF 100 IU/each, once daily topically", "result": 5.47, "unit": "pg/g"}]}
